Test results from patent US20230037453A1, “PREPARATION FOR USE AS VASORELAXANT” (Evonik Operations GmbH, priority 2020, published 2023).

Tested on: mice mesenteric arteries
Test: Vascular reactivity: vasorelaxation of phenylephrine-precontracted mesenteric arteries (wire or pressure myograph)
Assay type: cell-based
Settings: for direct vascular action: dose-dependent vasorelaxation compared with Healthberry 865 / vasorelaxation reached: single anthocyanins 1 - 100 µg/mL; for vasorelaxation reached: dose-response curves
Protocol: Second-order branches of the mesenteric arterial tree were removed from mice to perform vascular studies. […] First, an analysis of vascular reactivity curves was performed. In particular, vasoconstriction was assessed with 80 mmol/L of KCI or with increasing doses of phenylephrine (from 10^-9 M to 10^-6 M) in control conditions. Endothelium-dependent and -independent relaxations were assessed by measuring the dilatory responses of mesenteric arteries to cumulative concentrations of acetylcholine (from 10^-9 M to 10^-6 M) or nitroglycerine (from 10^-9 M to 10^-6 M) respectively, in vessels precontracted with phenylephrine at the dose necessary to obtain a similar level of precontraction in each ring (80% of initial KCI-evoked contraction). Caution was taken to avoid endothelial damage; functional integrity was reflected by the response to acetylcholine (from 10^-9 M to 10^-6 M). […]
F) Comparison of vasorelaxant effect of AvailOm®, ω 3-FA, ω 3-EE or L-Lysine. Statistical analyses were performed using two-way ANOVA followed Bonferroni post-hoc test. *p<0.05; **p<0.01, ***p<0.001.

[1] = phenylephrine-precontracted mice mesenteric arteries

Molecule	direct vascular action: dose-dependent vasorelaxation compared with Healthberry 865 [1]	vasorelaxation reached	direct vasorelaxant action (dose-response) (phenylephrine-precontracted mice mesenteric arteries, increasing doses 5 - 300 µg/mL)
OC[C@H]1O[C@@H](Oc2cc3c(O)cc(O)cc3[o+]c2-c2ccc(O)c(O)c2)[C@H](O)[C@@H](O)[C@H]1O [C3-gal, Cyanidin-3-galactoside]	able to reproduce the direct vasorelaxant effect of Healthberry 865®		
OC[C@H]1O[C@@H](Oc2cc3c(O)cc(O)cc3[o+]c2-c2ccc(O)c(O)c2)[C@H](O)[C@@H](O)[C@@H]1O [C3-glu, Cyanidin-3-glucoside]	none of the single anthocyanins was able to evoke a dose-dependent vasorelaxation comparable to that observed after Healthberry 865® administration		
C[C@@H]1O[C@@H](OC[C@H]2O[C@@H](Oc3cc4c(O)cc(O)cc4[o+]c3-c3ccc(O)c(O)c3)[C@H](O)[C@@H](O)[C@@H]2O)[C@H](O)[C@H](O)[C@H]1O [C3-rut, Cyanidin-3-rutinoside]	none of the single anthocyanins was able to evoke a dose-dependent vasorelaxation comparable to that observed after Healthberry 865® administration	~36,5%	
Oc1cc(O)c2cc(O[C@H]3OC[C@H](O)[C@H](O)[C@H]3O)c(-c3cc(O)c(O)c(O)c3)[o+]c2c1 [DP3-ara, Delphinidin-3-arabinoside]	none of the single anthocyanins was able to evoke a dose-dependent vasorelaxation comparable to that observed after Healthberry 865® administration		
OC[C@H]1O[C@@H](Oc2cc3c(O)cc(O)cc3[o+]c2-c2cc(O)c(O)c(O)c2)[C@H](O)[C@@H](O)[C@H]1O [DP3-gal, Delphinidin-3-galactoside]	none of the single anthocyanins was able to evoke a dose-dependent vasorelaxation comparable to that observed after Healthberry 865® administration	about 32,5%	
OC[C@H]1O[C@@H](Oc2cc3c(O)cc(O)cc3[o+]c2-c2cc(O)c(O)c(O)c2)[C@H](O)[C@@H](O)[C@@H]1O [DP3-glu, Delphinidin-3-glucoside]	none of the single anthocyanins was able to evoke a dose-dependent vasorelaxation comparable to that observed after Healthberry 865® administration		
NCCCC[C@H](N)C(=O)O [L-Lysine]			did not evoke any vasorelaxant effect
COc1cc(-c2[o+]c3cc(O)cc(O)c3cc2O[C@@H]2O[C@H](CO)[C@H](O)[C@H](O)[C@H]2O)cc(OC)c1O [MAL3-gal, Malvidin-3-galactoside]	none of the single anthocyanins was able to evoke a dose-dependent vasorelaxation comparable to that observed after Healthberry 865® administration		
COc1cc(-c2[o+]c3cc(O)cc(O)c3cc2O[C@@H]2O[C@H](CO)[C@@H](O)[C@H](O)[C@H]2O)cc(OC)c1O [MAL3-glu, Malvidin-3-glucoside]	none of the single anthocyanins was able to evoke a dose-dependent vasorelaxation comparable to that observed after Healthberry 865® administration		
COc1cc(-c2[o+]c3cc(O)cc(O)c3cc2O[C@@H]2O[C@H](CO)[C@@H](O)[C@H](O)[C@H]2O)cc(O)c1O [PT3-glu, Petunidin-3-glucoside]	none of the single anthocyanins was able to evoke a dose-dependent vasorelaxation comparable to that observed after Healthberry 865® administration		
Peonidin-3-galactoside [PEO3-gal]	none of the single anthocyanins was able to evoke a dose-dependent vasorelaxation comparable to that observed after Healthberry 865® administration		
